Measured values taken from ChEMBL document CHEMBL1201862, “PubChem BioAssay data set” (2004).
Activity calls are given as the source filed them.

Columns and labels:
[1] = reduction of Shn3 3'UTR-driven luciferase in osteoblasts – cell-based, Clone20 osteoblasts, firefly luciferase, cherry-picked, dose response (AID 624132); type: functional;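 further: firefly luciferase luminescence from reporter carrying the Shn3 3'UTR in osteoblasts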
[2] = loss of viability in HepG2 cells – cell-based, CellTiter-Glo, cherry-picked, cytotoxicity control for Shn3 inhibitor project, dose response (AID 624134); type: functional
[3] = Luminescence Cell-Based Dose Confirmation HTS to Identify Activators of 5'UTR Stem-Loop Driven Alpha-Synuclein mRNA Translation in H4 Neuroglioblastoma Cells. [Related pubchem assays: 1829 (Project Summary), 1814 (Primary HTS)]; type: functional
[4] = Luminescence Cell-Based Dose Response HTS to Identify Activators of Luciferase Translation or Activity in H4 […] Cells. [Related pubchem assays: 1829 (Project Summary), 1814 (Primary HTS)]; type: functional
H4 = assay: Luminescence Cell-Based Dose Response HTS to Identify Activators of 5'UTR Stem-Loop Driven Prion Protein mRNA Translation in H4 Neuroglioblastoma Cells. [Related pubchem assays: 1829 (Project Summary), 1814 (Primary HTS)]; type: functional; conditions: Homo sapiens
cells = type: functional
[5] = test system: Streptococcus sp. 'group A'; assay: Streptococcus pyogenes SK(-)GAS viability under kanamycin – luminescence, BacTiterGlo, confirmation, counter-screen for streptokinase expression inhibitor project, dose response (AID 1900); type: functional, organism-based
Streptokinase A = biological target: T1, Streptokinase A (Streptococcus pyogenes serotype M1, UniProt P10520); assay: viability-normalized secreted streptokinase activity reduction – plasminogen activation absorbance, OD405, dose response (AID 1914); type: functional, Streptococcus pyogenes M1 GAS;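 further: secreted streptokinase activity via plasminogen activation per viability signal from cell pellet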
T1 sequence (P10520 whole entry): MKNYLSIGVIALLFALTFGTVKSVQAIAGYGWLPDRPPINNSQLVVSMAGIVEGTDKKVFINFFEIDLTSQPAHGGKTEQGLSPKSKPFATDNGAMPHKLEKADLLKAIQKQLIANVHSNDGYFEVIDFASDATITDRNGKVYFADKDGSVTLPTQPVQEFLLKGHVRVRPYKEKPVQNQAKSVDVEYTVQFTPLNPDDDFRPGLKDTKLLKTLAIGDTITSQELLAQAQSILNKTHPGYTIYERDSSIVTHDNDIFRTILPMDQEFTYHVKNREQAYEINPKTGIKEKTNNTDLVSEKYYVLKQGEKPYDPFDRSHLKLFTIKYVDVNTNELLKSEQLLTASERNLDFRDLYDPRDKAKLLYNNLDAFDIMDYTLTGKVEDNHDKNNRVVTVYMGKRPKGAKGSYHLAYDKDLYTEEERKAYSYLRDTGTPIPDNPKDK

Streptococcus = assay: GAS UMAA2166 growth inhibition – luminescence, BacTiterGlo, counter-screen for streptokinase expression inhibitor project, dose response (AID 1915); type: functional, organism-based;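 further: potency for reduction of bacterial viability or growth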
H9c2 = assay: cells; type: functional, cell-based; conditions: Rattus norvegicus, H9c2, Myocardium;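 further: confirmatory concentration-response retest of ultra-high-throughput screening hits for modulation of myocardial damage; cell death induced by hydrogen peroxide oxidative stress; compound pretreatment for 60 min then peroxide exposure for 2 h; potency is for protecting the cells against peroxide damage rather than for killing them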
[6] = biological target: T2, Calpain-2 catalytic subunit (Sus scrofa, UniProt P43367); assay: m-calpain protease blockers, concentration series – biochemical, fluorogenic peptide substrate, dose response (AID 1420); type: functional
T2 sequence (P43367 whole entry): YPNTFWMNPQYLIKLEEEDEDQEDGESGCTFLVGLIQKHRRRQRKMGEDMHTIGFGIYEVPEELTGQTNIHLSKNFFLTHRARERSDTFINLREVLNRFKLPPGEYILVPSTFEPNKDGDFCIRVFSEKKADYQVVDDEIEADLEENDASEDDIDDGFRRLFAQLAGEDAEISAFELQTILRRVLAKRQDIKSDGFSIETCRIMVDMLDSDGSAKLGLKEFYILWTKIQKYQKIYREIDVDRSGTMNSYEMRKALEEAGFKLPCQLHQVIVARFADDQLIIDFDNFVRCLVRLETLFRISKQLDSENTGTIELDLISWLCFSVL

[7] = biological target: T3, Short transient receptor potential channel 4 (Mus musculus, UniProt Q9QUQ5); assay: calcium entry via TRPC4 opening agents – cell-based, HEK293 TRPC4/mu-opioid, Fluo-4 calcium, dose response (AID 434937); type: functional
T3 sequence (Q9QUQ5 whole entry): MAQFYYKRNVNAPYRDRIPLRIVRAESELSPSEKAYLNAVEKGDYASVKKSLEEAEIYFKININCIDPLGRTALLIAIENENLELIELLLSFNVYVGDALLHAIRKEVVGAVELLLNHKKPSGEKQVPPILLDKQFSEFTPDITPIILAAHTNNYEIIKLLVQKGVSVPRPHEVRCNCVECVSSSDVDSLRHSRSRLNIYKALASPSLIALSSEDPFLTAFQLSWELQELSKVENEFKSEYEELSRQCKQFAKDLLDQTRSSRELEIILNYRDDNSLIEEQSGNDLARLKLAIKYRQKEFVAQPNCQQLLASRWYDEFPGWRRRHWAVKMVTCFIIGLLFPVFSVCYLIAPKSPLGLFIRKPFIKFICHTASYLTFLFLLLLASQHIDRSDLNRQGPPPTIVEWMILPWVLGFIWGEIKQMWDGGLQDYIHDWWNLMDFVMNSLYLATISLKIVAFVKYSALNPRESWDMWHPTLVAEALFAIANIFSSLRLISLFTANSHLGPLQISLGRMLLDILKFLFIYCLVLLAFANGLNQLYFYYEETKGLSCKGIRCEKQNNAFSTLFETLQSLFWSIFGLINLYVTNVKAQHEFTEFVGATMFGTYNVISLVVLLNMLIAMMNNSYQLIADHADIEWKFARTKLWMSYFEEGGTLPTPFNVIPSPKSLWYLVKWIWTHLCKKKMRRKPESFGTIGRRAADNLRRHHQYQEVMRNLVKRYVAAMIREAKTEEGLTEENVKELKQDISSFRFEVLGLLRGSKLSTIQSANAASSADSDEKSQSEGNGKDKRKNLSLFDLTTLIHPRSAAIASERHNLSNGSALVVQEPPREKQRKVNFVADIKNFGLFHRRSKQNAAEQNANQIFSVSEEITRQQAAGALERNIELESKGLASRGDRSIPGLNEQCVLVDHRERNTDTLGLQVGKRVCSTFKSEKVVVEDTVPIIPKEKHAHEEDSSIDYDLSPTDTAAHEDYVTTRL

[8] = biological target: T4, Heat shock factor protein 1 (Mus musculus, UniProt P38532); assay: decrease of HSF1-responsive luciferase luminescence – cell-based, NIH3T3, dose retest, confirmation (AID 2382); type: functional;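 further: NIH3T3 fibroblasts with HSF1-driven luciferase reporter stressed by proteasome inhibitor MG132; luminescence from HSF1-driven luciferase expression after 8 hours of MG132 stress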
T4 sequence (P38532 whole entry): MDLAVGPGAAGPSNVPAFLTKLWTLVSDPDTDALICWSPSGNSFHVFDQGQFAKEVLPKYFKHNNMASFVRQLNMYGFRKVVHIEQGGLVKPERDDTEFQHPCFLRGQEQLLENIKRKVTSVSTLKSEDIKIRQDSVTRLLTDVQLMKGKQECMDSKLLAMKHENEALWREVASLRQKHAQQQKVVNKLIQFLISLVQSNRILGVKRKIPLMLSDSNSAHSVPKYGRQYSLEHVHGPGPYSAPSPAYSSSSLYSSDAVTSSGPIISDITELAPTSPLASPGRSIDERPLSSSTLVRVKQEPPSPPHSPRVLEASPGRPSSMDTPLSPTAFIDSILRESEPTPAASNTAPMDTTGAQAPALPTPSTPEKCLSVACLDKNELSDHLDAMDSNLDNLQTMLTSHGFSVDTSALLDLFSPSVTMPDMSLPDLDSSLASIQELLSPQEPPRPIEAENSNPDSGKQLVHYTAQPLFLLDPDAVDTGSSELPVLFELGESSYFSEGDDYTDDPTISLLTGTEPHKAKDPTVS

[9] = non-specific 3'UTR reporter inhibition in Clone20-Shn3RL – cell-based, Renilla luciferase, cherry-picked, counter-screen for Shn3 inhibitor project, dose response (AID 624133); type: functional
[10] = HIV-1 AD8 envelope cell-cell fusion blockers – cherry-pick, dose response (AID 652062); type: functional, cell-based;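 further: luciferase signal from cell-cell fusion driven by HIV-1 clade B AD8 Env; potency is for inhibitors of fusion seen as a drop in luminescence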

In the case of CCOC(=O)c1cn(CC(=O)Nc2cccc(Cl)c2C)nn1, the AC50 [1] was 4.65 µM (active) and the AC50 [2] was > 70 µM (inactive).

For O=C(CCN1CCC(c2cccs2)=N1)c1cccs1, the EC50 [3] was 15.7 µM (active), the EC50 [4] was 17.8 µM (active) and the EC50 (H4) was 15.5 µM (active). The IC50 (cells) was 35.8 µM (active).

In the case of O=C(Nc1nnc(-c2ccco2)o1)c1ccc2ccccc2c1, the EC50 [5] was 12.8 µM (active), the EC50 (Streptokinase A) was > 150 µM (not active) and the EC50 (Streptococcus) was > 150 µM (not active). The IC50 (H9c2) was > 79 µM (inactive).

In the case of Cc1cc(C)n(C(=N)NC(=O)c2ccc([N+](=O)[O-])cc2)n1, the EC50 [3] was 18.9 µM (active), the EC50 [4] was 26.7 µM (active) and the EC50 (H4) was 110 µM (active).

For CCOc1ccccc1N(CC(=O)OC)S(=O)(=O)c1ccccc1, the IC50 [6] was 35 µM (not active).

For COc1ccc(OC(=O)c2cnn(-c3ccccc3)c2C)cc1, the EC50 [3] was 9.33 µM (active), the EC50 [4] was 1.26 µM (active) and the EC50 (H4) was 1.93 µM (active).

For O=C(CNC(=O)c1nc[nH]c1C(=O)NCC(=O)OCc1ccccc1)OCc1ccccc1, the IC50 (H9c2) was 41 µM (inactive).

With CN(CC(=O)N1CCCCCC1)S(=O)(=O)c1ccccc1 the EC50 [3] was 15.4 µM (active), the EC50 [4] was 20.8 µM (active) and the EC50 (H4) was 18.1 µM (active).

With CCn1c(/C=C/Nc2ccccc2)[n+](CC)c2ccc(C(=O)OCC(F)(F)F)cc21 the IC50 [6] was 6.92 µM (not active).

For O=C(CCSc1ccccc1)NC(=O)COC(=O)C1CCCCC1, the IC50 [6] was 6.64 µM (not active).

With Cc1cccc(NC(S)=NCC(c2ccccc2)N(C)C)c1 (centres undefined) the EC50 [7] was 0.119 µM (active).

For COc1ccc2nc(O)c(CN(Cc3cccnc3)S(=O)(=O)c3ccccc3F)cc2c1, the EC50 [8] was 6.06 µM (active) and the IC50 (H9c2) was > 79 µM (inactive).

For COc1ccc(NC(=O)c2ccccc2SC)cc1, the IC50 [6] was 8.1 µM (not active).

With O=C(c1c(F)cccc1F)N1CCN(c2ncc(Br)cn2)CC1 the EC50 [7] was 0.596 µM (active).

In the case of CN(Cc1ccc(OC(F)F)cc1)C(=O)c1cccc(S(=O)(=O)N2CCN(c3ccccc3)CC2)c1, the AC50 [1] was 2.59 µM (active), the AC50 [2] was 62.1 µM (active) and the AC50 [9] was 1.65 µM (active).

For O=c1cc(CN2CCN(S(=O)(=O)c3cccc(Cl)c3)CC2)c2ccc(O)cc2o1, the IC50 (H9c2) was > 79 µM (inactive).

For Cc1csc(SCc2nc(O)c3c4c(sc3n2)CCC4)n1, the IC50 (H9c2) was 17.1 µM (active).

In the case of CS(=O)(=O)Nc1ccc2c(c1)[C@H]1C[C@H](CC(=O)NCc3ccc(-c4ccccc4)cc3)O[C@H](CO)[C@H]1O2, the AC50 [10] was 39 µM (active).
